Data set [1] has as its target T1, BCL-2/BAK (Homo sapiens, UniProt P10415).
T1 construct: purchased Cisbio
Kind of data set: Screening on inhibitory activity for BCL-2/BAK binding (Cisbio HTRF kit). In a few lines:
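HTRF competition assay: Tag1-BCL-2 and Tag2-BAK working dilutions were 5 nM and 120 nM. Compound (200–0.0488 nM final, 4-fold, 7 points, duplicates) was incubated with the proteins for 15 min at 25 °C, then with Eu-cryptate/XL665 antibodies for ≥2 h at 25 °C. IC50 was derived from a four-parameter fit.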

Data set [2] concerns RS4;11 cells. The data set can be described thus: Inhibitory effect on proliferation of RS4;11 cells (CCK-8). In kind it is cell-based, human. The essentials:
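RS4;11 cells were seeded at 1×10^5 cells/mL in RPMI with 5% FBS and incubated 24 h at 37° C, 5% CO2 before compound addition in duplicate. Inhibition was calculated against untreated and blank controls. IC50 came from a four-parameter fit of log concentration versus inhibition.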

Data set [3] deals with human platelet Caspase-3 activity. Kind of data set: Human platelet toxicity experiment (Caspase-3 activity assay). Conditions: 90 min, data normalized, reference ABT-199. In kind it is cell-based. As to the method: Experimental Example 6: Human Platelet Toxicity Experiment (Caspase-3 Activity Assay)
10 mL of human whole blood was collected using a heparin sodium anticoagulation tube, mixed well by turning upside down, and centrifuged at 90 g for 10 min. The supernatant was collected and centrifuged at 1950 g for 10 min. The supernatant was discarded, and the residue was resuspended in 4 mL of PBS, and centrifuged at 1190 g for 5 min, and the procedure was repeated once. The supernatant was discarded, and the platelets were resuspended in PBS and adjusted to the density of 2-3×10^8 cells/mL. Cells were seeded into a 96-well plate at a density of 2-3×10^7 cells/mL and at 100 μL/well. 50 μL of control buffer was added to each negative control well, and 50 μL of compound at a corresponding concentration was added to each compound well, so that the final concentration of the compound was 2.5 μM, 2 μM, 1 μM or 0.5 μM, followed by incubation in an incubator at 37° C. for 90 min. The liquids in the 96-well plate were transferred to 1.5 mL centrifuge tubes, respectively. The tubes were centrifuged at 4° C. and 6000 g for 5 min, and placed on ice for later use after the supernatant was discarded. 5× lysis buffer was diluted into 1× lysis buffer with water in the kit, and protease inhibitor cocktail was added at a 1:200 ratio to prepare a lysis mixture for later use. 40 μL of lysis mixture was added to each centrifuge tube, and the platelets at the bottom were resuspended using a pipette. The suspension was lysed on ice for 15-20 min and centrifuged at 4° C. and 14,000 g for 10 min. The sample was sub-packaged for later use. 10× assay buffer was diluted into 1× assay buffer with water in the kit, and substrate Ac-DEVD-AMC was added at a 1:600 ratio to prepare a reaction mixture. 5 μL of assay buffer and 40 μL of reaction mixture were added to each blank control well. 5 μL of control platelet lysate and 40 μL of reaction mixture were added to each negative control well. 5 μL of platelet lysate and 40 μL of reaction mixture were added to each compound well. In this procedure, 40 μL of reaction mixture was added at last. The resulting mixture was mixed gently, and the plate was read by a PE Envision multi-functional microplate reader (excitation: 360 nm, emission: 460 nm) once every 10 min for 6 times. Caspase-3 activity was determined based on the intensity of the released AMC fluorescence, that is the slope of the fitted line to which each well corresponds represents Caspase activity (all data were normalized and the reference was ABT-199).

For data set [4], the target named is T2, BCL-XL/BAK (Homo sapiens, UniProt Q07817).
T2 construct: purchased Cisbio
Kind of data set: Screening on inhibitory activity for BCL-XL/BAK binding (Cisbio HTRF kit). The essentials:
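Tag1-BCL-XL and Tag2-BAK (2 nM and 80 nM before mixing) were combined with compounds at final 2000–0.488 nM (4-fold, 7 points, duplicates) for 15 min at 25° C. Eu3+ anti-Tag1 and XL665 anti-Tag2 were then added for ≥2 h at 25° C. HTRF (620/665 nm) gave IC50 by four-parameter fit.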

A short description of data set [5]: In vitro stability in rat liver microsomes. The data set is classed as in vitro ADME. Conditions: 1 μM. The method, then: (§1) Experimental Example 3: In Vitro Stability in Liver Microsome
(§2) 300 μL of the final incubation system contains 30 μL of liver microsomes (protein concentration: 5 mg/mL), 30 μL of NADPH+MgCl2, 3 μL of the test compound (in acetonitrile), and 237 μL of PBS buffer (pH 7.4), wherein the proportion of the organic solvent (acetonitrile) is 1% (volume ratio). Two duplicate samples were prepared for each specie (mouse, rat and human), and each sample was 0.3 mL. Each tube which was added with 270 μL of a mixed solution of substrate and enzyme, and NADPH, after being pre-incubated at 37° C. for 5 min, was added with 30 μL of NADPH+MgCl2 and mixed. Then 50 μL of the mixture was taken at 0 min, 15 min, 30 min and 60 min, and added with 300 μL of glacial acetonitrile containing an internal standard to terminate the reaction.
(§3) 50 μL of the incubated sample was added with 300 μL of glacial acetonitrile containing an internal standard (20 ng/mL diazepam) for precipitation, vortexed for 5 min, and centrifuged (13,000 rpm, 20° C.) for 10 min. 70 μL of supernatant was taken and diluted with 70 μL of ultrapure water. After being mixed well, 1 μL of the resulting sample was injected for analysis.
In general terms: Microsomes from liver hold many membrane-bound enzymes, among them those of drug oxidation.

Data set [6] is described as follows: In vitro stability in human liver microsomes. The data set is classed as in vitro ADME. Conditions: 1 μM. As to the method: as §1, §2, §3
Data set [7] can be described thus: In vitro stability in mouse liver microsomes. The data set is classed as in vitro ADME. The note with it: 1 μM. The method, then: as §1, §2, §3

T1 sequence (P10415 whole entry, species assumed): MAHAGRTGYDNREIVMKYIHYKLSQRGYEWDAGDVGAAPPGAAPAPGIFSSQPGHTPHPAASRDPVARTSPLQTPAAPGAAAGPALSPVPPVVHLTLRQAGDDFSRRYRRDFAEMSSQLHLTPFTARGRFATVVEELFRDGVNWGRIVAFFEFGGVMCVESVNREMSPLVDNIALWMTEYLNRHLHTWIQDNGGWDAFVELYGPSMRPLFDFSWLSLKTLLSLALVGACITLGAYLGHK
T2 sequence (Q07817 whole entry, species assumed): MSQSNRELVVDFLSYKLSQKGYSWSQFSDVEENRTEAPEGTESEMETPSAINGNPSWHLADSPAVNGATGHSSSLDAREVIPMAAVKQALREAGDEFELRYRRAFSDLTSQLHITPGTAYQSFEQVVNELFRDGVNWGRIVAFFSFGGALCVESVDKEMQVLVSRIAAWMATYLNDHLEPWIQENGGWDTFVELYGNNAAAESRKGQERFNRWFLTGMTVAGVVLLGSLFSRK

Broadly, the IC50 is the point on the concentration scale where inhibition reaches its midpoint. Low values mean higher potency, high ones lower potency. Consider `CC1(C)CCC(CN2CCN(c3ccc(C(=O)NS(=O)(=O)c4ccc(NC[C@@H]5COCCO5)c([N+](=O)[O-])c4)c(Oc4cnc5[nH]ccc5c4)c3)CC2)=C(c2ccc(C(F)(F)F)cc2Cl)C1` [Compound 7-1], for which the results for the IC50 in data set [1], in data set [2] (72 h) and in data set [4] were 3.5 nM, 4.6 nM and 289 nM, respectively. In addition, in data set [3] (compound concentration 1 μM), the “human platelet Caspase-3 activity, Slope” value worked out at 0.48.

Consider `CC(=O)N1CCOC(CNc2ccc(S(=O)(=O)NC(=O)c3ccc(N4CCN(CC5=C(c6ccc(C(F)(F)F)cc6Cl)CC(C)(C)CC5)CC4)cc3Oc3cnc4[nH]ccc4c3)cc2[N+](=O)[O-])C1` (stereo not drawn) [Compound 9-1, 4-(4-{[2-(2-chloro-4-trifluoromethylphenyl)-4,4-dimethylcyclohex-1-enyl]methyl}-piperazin-1-yl)-N-({3-nitro-4-[((4-acetylmorpholin-2-yl)methyl)amino]phenyl}sulfonyl)-2-(1H-pyrrolo[2,3-b]pyridin-5-yloxy)-benzamide], for which the IC50 in data set [1] is 1.8 nM; in data set [2] (Homo sapiens, RS4-11, 72 h), 2.7 nM. For the same compound, the “Rat Residual content after 60 min (%)” value in data set [5] is given as 101.7%. For the same compound, the “Human Residual content after 60 min (%)” value in data set [6] is 69.8%. For the same compound, in data set [7], the “Mouse Residual content after 60 min (%)” value amounted to 55.7%.

In the case of `CN1CCC(CCCNc2ccc(S(=O)(=O)NC(=O)c3ccc(N4CCN(CC5=C(c6ccc(C(F)(F)F)cc6Cl)CC(C)(C)CC5)CC4)cc3Oc3cnc4[nH]ccc4c3)cc2[N+](=O)[O-])CC1` [Compound 17-1, 4-(4-{[2-(2-chloro-4-trifluoromethylphenyl)-4,4-dimethylcyclohex-1-enyl]methyl}-piperazin-1-yl)-N-({3-nitro-4-[(3-(1-methylpiperidin-4-yl)propyl)amino]phenyl}sulfonyl)-2-(1H-pyrrolo[2,3-b]pyridin-5-yloxy)-benzamide], the IC50 in data set [1] came out at 2 nM; in data set [2] (Homo sapiens, RS4-11, 72 h), 2.9 nM. In data set [3] (compound concentration 1 μM), the “human platelet Caspase-3 activity, Slope” value turned out to be 0.48.

As for `CN1CCC(CCNc2ccc(S(=O)(=O)NC(=O)c3ccc(N4CCN(CC5=C(c6ccc(C(F)(F)F)cc6Cl)CC(C)(C)CC5)CC4)cc3Oc3cnc4[nH]ccc4c3)cc2[N+](=O)[O-])CC1` [Compound 18-1, 4-(4-{[2-(2-chloro-4-trifluoromethylphenyl)-4,4-dimethylcyclohex-1-enyl]methyl}-piperazin-1-yl)-N-({3-nitro-4-[(2-(1-methylpiperidin-4-yl)ethyl)amino]phenyl}sulfonyl)-2-(1H-pyrrolo[2,3-b]pyridin-5-yloxy)-benzamide], the 50% inhibitory concentration (IC50) in data set [1] came to 2.7 nM; in data set [2] (Homo sapiens, RS4-11, 72 h), 4.3 nM. In addition, in data set [3] (compound concentration 1 μM), the “human platelet Caspase-3 activity, Slope” value was 0.31.

Consider `CCN1CCC(CCNc2ccc(S(=O)(=O)NC(=O)c3ccc(N4CCN(CC5=C(c6ccc(C(F)(F)F)cc6Cl)CC(C)(C)CC5)CC4)cc3Oc3cnc4[nH]ccc4c3)cc2[N+](=O)[O-])CC1` [Compound 19-1, 4-(4-{[2-(2-chloro-4-trifluoromethylphenyl)-4,4-dimethylcyclohex-1-enyl]methyl}-piperazin-1-yl)-N-({3-nitro-4-[(2-(1-ethylpiperidin-4-yl)ethyl)amino]phenyl}sulfonyl)-2-(1H-pyrrolo[2,3-b]pyridin-5-yloxy)-benzamide], for which the 50% inhibitory concentration (IC50) in data set [1] came out at 2.5 nM; in data set [2] (Homo sapiens, RS4-11, 72 h), 3.5 nM. Besides, the “human platelet Caspase-3 activity, Slope” value in data set [3] (compound concentration 1 μM) is 0.12.

On to `CC1(C)CCC(CN2CCN(c3ccc(C(=O)NS(=O)(=O)c4ccc(NCCC5CCN(CCF)CC5)c([N+](=O)[O-])c4)c(Oc4cnc5[nH]ccc5c4)c3)CC2)=C(c2ccc(C(F)(F)F)cc2Cl)C1` [Compound 20-1, 4-(4-{[2-(2-chloro-4-trifluoromethylphenyl)-4,4-dimethylcyclohex-1-enyl]methyl}-piperazin-1-yl)-N-({3-nitro-4-[(2-(1-(2-fluoroethyl)piperidin-4-yl)ethyl)amino]phenyl}sulfonyl)-2-(1H-pyrrolo[2,3-b]pyridin-5-yloxy)-benzamide], for which the IC50 in data set [1] turned out to be 2.1 nM; in data set [2] (Homo sapiens, RS4-11, 72 h), 3.9 nM. The “human platelet Caspase-3 activity, Slope” value in data set [3] (compound concentration 1 μM) stood at 0.37.

As to `CC1(C)CCC(CN2CCN(c3ccc(C(=O)NS(=O)(=O)c4ccc(NC[C@@H]5CCCOC5)c([N+](=O)[O-])c4)c(Oc4cnc5[nH]ccc5c4)c3)CC2)=C(c2ccc(C(F)(F)F)cc2Cl)C1` [Compound 43-1, (S)-4-(4-{[2-(2-chloro-4-trifluoromethylphenyl)-4,4-dimethylcyclohex-1-enyl]methyl}-piperazin-1-yl)-N-({3-nitro-4-[((tetrahydropyran-3-yl)methyl)amino]phenyl}sulfonyl)-2-(1H-pyrrolo[2,3-b]pyridin-5-yloxy)-benzamide], the 50% inhibitory concentration (IC50) was 1.8 nM in data set [1]; 1.9 nM in data set [2] (Homo sapiens, RS4-11, 72 h); 121 nM in data set [4]. Besides, the “human platelet Caspase-3 activity, Slope” value was 0.19 in data set [3] (compound concentration 0.5 μM) and 0.09 in data set [3] (compound concentration 2 μM).

Take `CCS(=O)(=O)N1CCOC(CNc2ccc(S(=O)(=O)NC(=O)c3ccc(N4CCN(CC5=C(c6ccc(C(F)(F)F)cc6Cl)CC(C)(C)CC5)CC4)cc3Oc3cnc4[nH]ccc4c3)cc2[N+](=O)[O-])C1` (stereo not drawn) [Compound 57-1, 4-(4-{[2-(2-chloro-4-trifluoromethylphenyl)-4,4-dimethylcyclohex-1-enyl]methyl}-piperazin-1-yl)-N-({3-nitro-4-[((4-(ethylsulfonyl)morpholin-2-yl)methyl)amino]phenyl}sulfonyl)-2-(1H-pyrrolo[2,3-b]pyridin-5-yloxy)-benzamide]: the IC50 was 3.4 nM in data set [1]; 2.3 nM in data set [2] (Homo sapiens, RS4-11, 72 h); 268 nM in data set [4]. The figures for the “human platelet Caspase-3 activity, Slope” value in data set [3] (compound concentration 0.5 μM) and in data set [3] (compound concentration 2 μM) were 0.08 and 0.04, respectively.

For the compound `CC(=O)N1CCO[C@H](CNc2ccc(S(=O)(=O)NC(=O)c3ccc(N4CCN(CC5=C(c6ccc(C(F)(F)F)cc6Cl)CC(C)(C)CC5)CC4)cc3Oc3cnc4[nH]ccc4c3)cc2[N+](=O)[O-])C1` [Compound 65-1, (R)-4-(4-{[2-(2-chloro-4-trifluoromethylphenyl)-4,4-dimethylcyclohex-1-enyl]methyl}-piperazin-1-yl)-N-({3-nitro-4-[((4-acetylmorpholin-2-yl)methyl)amino]phenyl}sulfonyl)-2-(1H-pyrrolo[2,3-b]pyridin-5-yloxy)-benzamide], the 50% inhibitory concentration (IC50) was determined as 1.5 nM in data set [1]; 1.8 nM in data set [2] (Homo sapiens, RS4-11, 72 h); 134 nM in data set [4]. The “human platelet Caspase-3 activity, Slope” value in data set [3] (compound concentration 0.5 μM) was determined as 0.44; in data set [3] (compound concentration 2 μM), 0.43.
